The text below walks through data of US12630530B2, “FGFR inhibitor compound and use thereof” (HENAN MEDINNO PHARMACEUTICAL TECHNOLOGY CO., LTD., priority 2020, dated 2026).

Structures are written as SMILES.

Assay type in all cases: biochemical
The target in one test is T1, FGFR3 V555M (Homo sapiens, UniProt P22607, V555M).
T1 construct: purchased Signalchem F06-12GG
The test is described as follows: Assay I: inhibitory activity against FGFR mutants (HTRF KinEASE-TK). As to conditions: Table 1; ATP working concentration 20 μM, substrate TK 1 μM. As to the method: (§1) Assay I: Determination of Inhibitory Activity Against FGFR Mutants
(§2) 1×Kinase reaction buffer was formulated with 1×volume of 5× kinase reaction buffer and 4×volume of water; 5 mM MgCl2; and 1 mM DTT.
2.3 Screening of Compounds: • 1. Diluting a compound 4-fold in a dilution plate with DMSO, with a starting compound concentration of 2 mM (4 mM for Nentedanib). • 2. Diluting the compound 40-fold into 1× kinase reaction buffer and shaking it on a shaker for 20 minutes. • 3. […] Adding 1 μl of the compound diluted in buffer to each well, sealing the plate with a sealing membrane and centrifuging the plate at 1000 g for 30 seconds and leaving it at room temperature for 10 minutes. • 6. Formulating 2.5×TK-substrate-biotin and ATP mixture with 1× enzyme reaction buffer and adding 2 μl of K-substrate-biotin/ATP mixture to the reaction plate. • 7. Sealing the plate with a sealing membrane and centrifuging the plate at 1000 g for 30 seconds and allowing it to react at room temperature for 50 minutes. • 8. Formulating 4×Sa-XL 665 (250 nM) with HTRF assay buffer. • 9. Adding 5 μl Sa-XL 665 and 5 μl TK-Antibody-Cryptate to each well, centrifuging it at 1000 g for 30 seconds, and allowing it to react for 1 hour at room temperature. • 10. Reading fluorescence signals at 615 nm (Cryptate) and 665 nm (XL665) with Biotek. 3. Data Analysis
3.1 Calculation of the ratio for each well: the ratio was calculated as 665/615 nm.
(§3) 3.3 Calculation of IC50 and plotting of inhibition curves for the compounds.
(§4) The IC50 (half inhibition concentration) of a compound was obtained using the following non-linear fitting equation, wherein data analysis was performed using Graphpad 6.0 software.
(§5) Data were exported from Envision and analyzed manually. The ratios were converted to inhibition rates and IC50 was calculated by Prism GraphPad 6.0 from the inhibition rates. IC50 was calculated again by the ratios to verify accuracy of the results.
(In general: TR-FRET usually uses a lanthanide donor and a delayed reading to cut background.)

In a further test the target is T2, VEGFR2 (Homo sapiens, UniProt P35968).
T2 construct: purchased Carna 08-191
T2 sequence (P35968 20-1356): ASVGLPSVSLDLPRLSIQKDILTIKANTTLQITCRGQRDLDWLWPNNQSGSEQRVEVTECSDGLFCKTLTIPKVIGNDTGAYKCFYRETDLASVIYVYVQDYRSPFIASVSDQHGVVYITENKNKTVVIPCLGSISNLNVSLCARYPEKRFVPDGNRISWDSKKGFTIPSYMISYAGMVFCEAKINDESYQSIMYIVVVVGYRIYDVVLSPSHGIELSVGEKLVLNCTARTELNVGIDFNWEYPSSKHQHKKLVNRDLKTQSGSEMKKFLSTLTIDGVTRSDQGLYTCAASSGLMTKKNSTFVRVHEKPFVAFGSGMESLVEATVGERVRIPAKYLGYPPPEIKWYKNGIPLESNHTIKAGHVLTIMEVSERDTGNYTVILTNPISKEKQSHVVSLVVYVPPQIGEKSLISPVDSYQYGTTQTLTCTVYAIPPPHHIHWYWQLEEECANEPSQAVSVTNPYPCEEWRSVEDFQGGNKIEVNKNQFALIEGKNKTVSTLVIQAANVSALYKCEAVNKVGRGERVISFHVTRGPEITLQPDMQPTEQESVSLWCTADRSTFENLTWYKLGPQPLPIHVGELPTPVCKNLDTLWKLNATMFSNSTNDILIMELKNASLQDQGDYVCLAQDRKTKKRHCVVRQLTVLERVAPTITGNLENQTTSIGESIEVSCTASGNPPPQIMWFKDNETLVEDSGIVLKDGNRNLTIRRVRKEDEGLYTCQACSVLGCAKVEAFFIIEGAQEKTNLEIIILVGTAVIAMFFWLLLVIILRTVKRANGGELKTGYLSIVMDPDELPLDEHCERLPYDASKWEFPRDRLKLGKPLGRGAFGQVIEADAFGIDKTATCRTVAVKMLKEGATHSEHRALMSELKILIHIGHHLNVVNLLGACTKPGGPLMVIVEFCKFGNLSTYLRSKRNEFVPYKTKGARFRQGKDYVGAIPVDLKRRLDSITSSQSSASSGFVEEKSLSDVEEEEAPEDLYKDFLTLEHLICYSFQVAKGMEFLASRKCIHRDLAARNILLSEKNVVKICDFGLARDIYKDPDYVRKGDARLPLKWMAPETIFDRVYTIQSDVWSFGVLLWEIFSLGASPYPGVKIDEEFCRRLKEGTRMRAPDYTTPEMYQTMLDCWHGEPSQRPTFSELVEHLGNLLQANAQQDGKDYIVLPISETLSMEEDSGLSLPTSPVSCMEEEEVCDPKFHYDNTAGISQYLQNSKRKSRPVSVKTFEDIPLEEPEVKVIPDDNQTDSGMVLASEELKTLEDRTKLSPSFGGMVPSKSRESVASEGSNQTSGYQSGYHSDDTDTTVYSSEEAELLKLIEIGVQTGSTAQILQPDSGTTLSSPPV
The test is described as follows: Assay I: kinase inhibition (HTRF KinEASE-TK), VEGFR2. As to conditions: Table 1; ATP working concentration 5 μM, substrate TK 1 μM.

The next test deals with FGFR3 K650E (Homo sapiens, UniProt P22607, K650E). The experiment in a line: Assay I: inhibitory activity against FGFR mutants (HTRF KinEASE-TK). As to conditions: Table 1; ATP working concentration 50 μM, substrate TK 1 μM. On the procedure: as §1, §2
FGFR3 K650E, sequence (P22607 23-806 K650E): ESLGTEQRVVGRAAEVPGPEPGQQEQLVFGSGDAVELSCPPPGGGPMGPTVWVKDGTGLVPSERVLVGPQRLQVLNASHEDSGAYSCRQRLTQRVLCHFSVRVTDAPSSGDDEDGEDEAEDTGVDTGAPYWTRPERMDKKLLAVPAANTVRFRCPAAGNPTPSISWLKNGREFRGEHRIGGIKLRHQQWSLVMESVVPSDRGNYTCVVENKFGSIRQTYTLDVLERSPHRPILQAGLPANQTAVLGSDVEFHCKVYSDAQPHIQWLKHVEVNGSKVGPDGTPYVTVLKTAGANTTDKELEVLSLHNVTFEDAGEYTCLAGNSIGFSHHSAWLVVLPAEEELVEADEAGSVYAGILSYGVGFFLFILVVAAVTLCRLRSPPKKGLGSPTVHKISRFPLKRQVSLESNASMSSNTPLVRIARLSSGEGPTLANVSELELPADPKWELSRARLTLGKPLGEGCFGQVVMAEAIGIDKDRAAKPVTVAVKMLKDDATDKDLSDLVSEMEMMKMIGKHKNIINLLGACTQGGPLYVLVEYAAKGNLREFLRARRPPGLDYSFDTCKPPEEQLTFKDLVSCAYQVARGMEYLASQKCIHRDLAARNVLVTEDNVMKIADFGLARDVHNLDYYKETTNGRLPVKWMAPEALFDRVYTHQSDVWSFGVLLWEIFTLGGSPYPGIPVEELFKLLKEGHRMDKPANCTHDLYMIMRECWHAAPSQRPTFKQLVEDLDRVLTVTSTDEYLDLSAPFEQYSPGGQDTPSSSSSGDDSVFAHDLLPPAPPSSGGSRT
(§6) 2.3 Screening of Compounds: • 1. […] Adding 1 μl of the compound diluted in buffer to each well, sealing the plate with a sealing membrane and centrifuging the plate at 1000 g for 30 seconds and leaving it at room temperature for 10 minutes. • 6. Formulating 2.5×TK-substrate-biotin and ATP mixture with 1× enzyme reaction buffer and adding 2 μl of K-substrate-biotin/ATP mixture to the reaction plate. • 7. Sealing the plate with a sealing membrane and centrifuging the plate at 1000 g for 30 seconds and allowing it to react at room temperature for 50 minutes. • 8. […] 3. Data Analysis
as §3, §4, §5

For a further test, the target named is T3, FGFR1 V561M (Homo sapiens, UniProt P11362, V561M).
T3 construct: purchased Signalchem F04-13G
T3 sequence (P11362 22-822 V561M): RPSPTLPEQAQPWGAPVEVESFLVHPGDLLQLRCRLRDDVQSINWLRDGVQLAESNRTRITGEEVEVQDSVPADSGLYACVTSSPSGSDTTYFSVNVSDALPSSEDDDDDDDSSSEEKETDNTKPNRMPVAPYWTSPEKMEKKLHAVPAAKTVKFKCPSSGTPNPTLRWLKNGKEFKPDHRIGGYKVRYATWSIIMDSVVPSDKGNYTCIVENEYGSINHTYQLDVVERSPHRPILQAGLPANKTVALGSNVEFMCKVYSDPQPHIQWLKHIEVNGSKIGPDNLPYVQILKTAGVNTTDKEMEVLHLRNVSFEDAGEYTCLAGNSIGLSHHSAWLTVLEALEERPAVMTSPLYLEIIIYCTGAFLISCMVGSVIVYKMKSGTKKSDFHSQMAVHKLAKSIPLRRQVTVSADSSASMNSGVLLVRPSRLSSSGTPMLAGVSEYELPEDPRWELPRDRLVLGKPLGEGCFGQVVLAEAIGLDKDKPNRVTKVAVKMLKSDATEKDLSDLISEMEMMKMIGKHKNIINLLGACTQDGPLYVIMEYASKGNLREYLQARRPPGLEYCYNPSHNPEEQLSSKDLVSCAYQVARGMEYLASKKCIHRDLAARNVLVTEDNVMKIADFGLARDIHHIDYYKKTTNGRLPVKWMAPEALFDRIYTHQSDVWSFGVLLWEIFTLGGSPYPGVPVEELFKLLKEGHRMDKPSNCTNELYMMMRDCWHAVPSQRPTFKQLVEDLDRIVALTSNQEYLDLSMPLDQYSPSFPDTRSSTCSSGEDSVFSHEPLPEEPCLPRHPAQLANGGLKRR
Described as above. As to conditions: Table 1; ATP working concentration 5 μM, substrate TK 1 μM. On the procedure: as §1, §2, §6, §3, §4, §5

Another test has as its target T4, FGFR2 V564F (Homo sapiens, UniProt P21802, V564F).
T4 construct: purchased Signalchem F05-12FG
The description is as above. As to conditions: Table 1; ATP working concentration 10 μM, substrate TK 1 μM. As to the method: as §1, §2, §6, §3, §4, §5

The target in another test is T5, FGFR2 (Homo sapiens, UniProt P21802).
T5 construct: purchased Carna 08-134
T5 sequence (P21802 22-821): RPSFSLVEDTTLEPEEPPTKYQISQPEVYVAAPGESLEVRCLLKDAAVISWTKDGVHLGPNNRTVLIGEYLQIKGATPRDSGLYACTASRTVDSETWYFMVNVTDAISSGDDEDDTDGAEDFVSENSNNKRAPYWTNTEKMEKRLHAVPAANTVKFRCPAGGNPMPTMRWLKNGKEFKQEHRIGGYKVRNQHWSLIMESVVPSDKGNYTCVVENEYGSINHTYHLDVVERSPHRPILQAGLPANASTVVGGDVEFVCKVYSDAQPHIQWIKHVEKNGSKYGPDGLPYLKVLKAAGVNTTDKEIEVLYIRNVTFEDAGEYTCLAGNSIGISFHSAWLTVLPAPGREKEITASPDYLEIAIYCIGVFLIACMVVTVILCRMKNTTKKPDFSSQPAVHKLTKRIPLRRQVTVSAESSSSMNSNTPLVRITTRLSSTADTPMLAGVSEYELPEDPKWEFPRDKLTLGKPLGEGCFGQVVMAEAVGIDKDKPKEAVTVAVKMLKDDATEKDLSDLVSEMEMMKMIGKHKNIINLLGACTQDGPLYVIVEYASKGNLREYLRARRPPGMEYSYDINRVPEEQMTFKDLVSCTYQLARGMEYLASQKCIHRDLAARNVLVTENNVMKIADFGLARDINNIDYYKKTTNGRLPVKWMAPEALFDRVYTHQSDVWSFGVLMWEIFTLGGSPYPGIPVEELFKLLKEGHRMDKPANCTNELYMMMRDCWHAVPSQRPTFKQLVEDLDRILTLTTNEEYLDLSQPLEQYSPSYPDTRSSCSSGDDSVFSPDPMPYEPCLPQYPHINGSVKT
The test is described as follows: Assay II: inhibitory activity against wild-type FGFR (HTRF KinEASE-TK). As to conditions: Table 2, ATP working concentration 50 μM, substrate TK 1 μM. As to the method:
(§7) Assay II: Determination of inhibitory activity against wild-type FGFR
as §2
(§8) 3. Formulating 2×FGFR1/FGFR2/FGFR3 with 1× of enzyme reaction buffer.
(§9) 4. Adding 2 μl FGFR1/FGFR2/FGFR3 kinase (formulated in step 3) to each well of the reaction plate.
(§10) 5. Adding 1 μl of the compound diluted in buffer to each well, sealing the plate with a sealing membrane and centrifuging the plate at 1000 g for 30 seconds and leaving it at room temperature for 10 minutes.
(§11) 6. Formulating 2.5×TK-substrate-biotin and ATP mixture with 1× enzyme reaction buffer and adding 2 μl of K-substrate-biotin/ATP mixture to the reaction plate.
(§12) 7. Sealing the plate with a sealing membrane and centrifuging the plate at 1000 g for 30 seconds and allowing it to react at room temperature for 50 minutes.
as §3, §4, §5

The target in another test is T6, FGFR1 (Homo sapiens, UniProt P11362).
T6 construct: purchased Carna 08-133
T6 sequence (P11362 22-822): as the sequence (P11362 22-822 V561M) above, with M540V counted along it
The test is described as above. As to conditions: Table 2, ATP working concentration 50 μM, substrate TK 1 μM. As to the method: as §7, §2, §8, §9, §10, §11, §12, §3, §4, §5

The next test concerns the target T7, FGFR3 (Homo sapiens, UniProt P22607).
T7 construct: purchased Carna 08-135
Described as above. To be noted: Table 2, ATP working concentration 50 μM, substrate TK 1 μM. On the procedure: as §7, §2, §8, §9, §10, §11, §12, §3, §4, §5

T1 sequence (P22607 23-806 V555M): as the sequence (P22607 23-806 K650E) above, with V533M, E628K counted along it
T4 sequence (P21802 22-821 V564F): as the sequence (P21802 22-821) above, with V543F counted along it
T7 sequence (P22607 23-806): as the sequence (P22607 23-806 K650E) above, with E628K counted along it

Consider `CC(Oc1ccc2[nH]nc(C(=O)Nc3cnn(CCO)c3)c2c1)c1c(Cl)cncc1Cl` (centres unmarked) [Compound 2, 5-(1-(3,5-dichloropyridin-4-yl)ethoxy)-N-(1-(2-hydroxyethyl)-1H-pyrazol-4-yl)-1H-indazole-3-carboxamide], for which the IC50 (as a rule, the point on the concentration scale where inhibition reaches its midpoint) stood at 2.2 nM on FGFR3 V555M; 176 nM against VEGFR2; 30 nM against FGFR3 K650E; 7 nM on FGFR1 V561M; 2 nM against FGFR2 V564F.
As for `C[C@@H]1CN(c2ccc(NC(=O)c3n[nH]c4ccc(O[C@H](C)c5c(Cl)cncc5Cl)cc34)cc2)C[C@H](C)N1` [Compound 6, 5-((R)-1-(3,5-dichloropyridin-4-yl)ethoxy)-N-(4-((3S,5R)-3,5-dimethylpiperazin-1-yl)phenyl)-1H-indazole-3-carboxamide], the IC50 is 0.94 nM on FGFR3 V555M; 84.1 nM against VEGFR2; 21.3 nM against FGFR2; 27.7 nM on FGFR1; 52.2 nM on FGFR3; 2.3 nM at FGFR1 V561M. 0.66 nM corresponded to half-maximal inhibition against FGFR2 V564F (IC50).
`CC(Oc1ccc2[nH]nc(C(=O)Nc3cnn(C(C)CC#N)c3)c2c1)c1c(Cl)cncc1Cl` (centres unmarked) [Compound 5, N-(1-(1-cyanopropan-2-yl)-1H-pyrazol-4-yl)-5-(1-(3,5-dichloropyridin-4-yl)ethoxy)-1H-indazole-3-carboxamide]: the IC50 at FGFR3 V555M came out at 4.6 nM; at FGFR3 K650E it was 33.4 nM; against FGFR1 V561M it was 7.2 nM; at FGFR2 V564F, 2.4 nM.
On the same counts, the results for `CC(Oc1ccc2[nH]nc(C(=O)Nc3ccc(N4C[C@@H](C)N[C@@H](C)C4)cc3)c2c1)c1c(Cl)cncc1Cl` (stereo partly drawn) [Compound 1, 5-(1-(3,5-dichloropyridin-4-yl)ethoxy)-N-(4-((3S,5R)-3,5-dimethylpiperazin-1-yl)phenyl)-1H-indazole-3-carboxamide] are 8.6 nM, 26.8 nM, 6.3 nM and 2.3 nM.
